This passage reports cytotoxicity results from ChEMBL document CHEMBL3507680, “University of Dundee, Gates Library screen for HepG2 cell viability”.

The series is described as follows: Human HepG2 cell viability assay in 384 well format. Type of series: toxicity, cell-based. The arrangement: dose 125 nL, time 70.5 hour; cytotoxicity at 70.5 h: concentration not given beside the values. The conditions noted are these: HepG2 cells, read-out: Inhibition.
Regarding `Cc1c(CN2CCCCC2)c(O)n(CCO)c(=O)c1C#N`, the cytotoxicity at 70.5 h was -2.11%. For `NC(=O)C1CCN(C(=O)CCSCc2ccccc2)CC1` the value was -5.5%; for `CN(C)CCCNC(=O)c1ccc(Cl)cc1Cl`, -14.1%. Take `Cn1cnnc1SCc1cc2c(cc1Br)OCO2`: the cytotoxicity at 70.5 h was -1.06%. Regarding `COc1ccc2c(ccn2CCC(=O)/N=c2\[nH]nc(C3CCCO3)s2)c1` (stereo not drawn), the cytotoxicity at 70.5 h was -15.5%. Turning to `Cc1cs/c(=N\C(=O)c2c3c(nc4onc(C)c24)CCC3)[nH]1`, the cytotoxicity at 70.5 h was -19.5%.

Consider `CN(C)CCNC(=O)c1ccccc1NC(=O)c1cc(Cl)ccc1Cl`, for which the cytotoxicity at 70.5 h came to 26.4%.

In the case of `CC1=Nc2c(c(O)nn2C2CCOCC2)C(c2cccnc2)S1` (stereo not drawn), the cytotoxicity at 70.5 h was -3.81%. With `COCc1n[nH]/c(=N\C(=O)c2c3c(nc4onc(C)c24)CCC3)s1`, the cytotoxicity at 70.5 h is -3.26%.

On to `O=C(CCn1ccc2ccc(Br)cc21)/N=c1\[nH]nc(C2CCCO2)s1` (stereo not drawn), for which the cytotoxicity at 70.5 h was -14.5%. For `O=C(Cn1ccc2ccc(Cl)cc21)/N=c1\[nH]nc(C2CCCO2)s1` (stereo not drawn) the value was -2.63%; for `COC(=O)CC1CCN(C(=O)c2ccccc2-n2nnnc2C)CC1`, -12.6%. On to `CC1=Nc2c(c(O)nn2C(C)C)C(c2cccnc2)S1` (stereo not drawn), for which the cytotoxicity at 70.5 h was found to be 26.1%. For `O=c1cc(-c2ccccc2)nc2n1CCCCC2` the value was 23.6%; for `CCOc1cccc(CNc2cccc(C(=O)OC)c2)c1O`, -19.3%; for `CCOc1cccc(CNc2ccccc2OC)c1O`, -8.56%. The value for `CCc1ccc(-n2nnc(C(=O)O)c2-c2ccccn2)cc1` was -26.2%; that for `COc1ccc(-n2nnc(C(=O)O)c2-c2ccccn2)cc1` was -14.5%; that for `O=S(=O)(NC1=NCN(CCc2ccccc2)CN1)c1ccc(F)cc1` was -27.6%. For `O=C(NCCN1CCOCC1)c1nc(-c2ccc3[nH]ccc3c2)no1` the value was -30.5%; for `Cc1c(C)n(Cc2ccccn2)c2nc3c(c(N)c12)CCCCC3`, 27.5%.

Consider `COc1ccc(N2Cc3nc(=O)n(C(C)C)n3C2=O)cc1`, for which the cytotoxicity at 70.5 h is -15.6%. For `CN(C(=O)Cn1nc(-c2ccccc2F)ccc1=O)C1CCS(=O)(=O)C1` (stereo not drawn) the value was -25.7%; for `CN(C(=O)Cn1nc(-c2ccc(Cl)cc2)ccc1=O)C1CCS(=O)(=O)C1` (stereo not drawn), -21.1%; for `Cc1nnc2ccc(N3CCC(C(=O)Nc4nccs4)CC3)nn12`, 1.41%. The value for `Cc1c(C)n(Cc2ccccn2)c2nc3c(c(N)c12)CCCCCC3` was 22%; that for `O=c1ccc(-c2cccs2)nn1CN1CCc2ccccc2C1` was -23.7%; that for `O=C1CC(c2ccc3c(c2)OCO3)c2c(n3ccsc3nc2=O)N1` (stereo not drawn) was -9.84%. For `Cc1ccc(N2Cc3nc(=O)n(C(C)C)n3C2=O)cc1`, the cytotoxicity at 70.5 h was -28.9%. Consider `Cc1oc(-c2nc(C#N)c(NCC(C)C)o2)cc1S(=O)(=O)N1CCCC1`, for which the cytotoxicity at 70.5 h was -13.1%. The value for `Cc1oc(-c2nc(C#N)c(NC(C)(C)C)o2)cc1S(=O)(=O)N1CCCC1` was -8.41%; that for `COc1ccc(NS(=O)(=O)CC2=NC(=O)n3cccc3C2=O)cc1Cl` was -8.91%; that for `O=c1c(S(=O)(=O)N2CCCCC2)cccn1Cc1cccnc1` was -9.28%. For `COc1ccc(-c2nc(C)cc(SCC(N)=O)n2)cc1` the value was -2.23%; for `CCCN(CCC)c1ncc(S(=O)(=O)c2ccc(C)cc2)c(N)n1`, -19.9%. For `CCCN(CCC)c1ncc(S(=O)(=O)c2ccc(OC)cc2)c(N)n1` the value was -9.23%; for `Cc1c(C(=O)O)cnn1-c1ccc(-c2nc(C3CC3)no2)cn1`, -14%.

On to `Cc1c(C(=O)N2CCN(c3ccccn3)CC2)n(C)c2ccc(Cl)cc12`, for which the cytotoxicity at 70.5 h is -13.6%.

For `CCc1c(C)n(CCOC)c2nc3ccccc3n2c1=O`, the cytotoxicity at 70.5 h came to 19.8%.

For the compound `CC1CC(=O)c2cnc3nc(N4CCOCC4)[nH]c(=O)c3c2C1` (stereo not drawn), the cytotoxicity at 70.5 h was -15.8%. The value for `OCCNc1nc(NCCc2ccccc2)nc2nccnc12` was -1.57%.

With `CC1(C)CC(=O)c2cnc3nc(N4CCCCC4)nc(O)c3c2C1`, the cytotoxicity at 70.5 h is -11%. For `COc1ccccc1C1CC(=O)Nc2c1c(=O)[nH]n2C(C)C` (stereo not drawn), the cytotoxicity at 70.5 h came to 25.6%. The value for `CCOC(=O)CC(c1ccc(OC)cc1)c1c(O)n[nH]c1C` (stereo not drawn) was -13.7%. For `O=C(NCCc1nccs1)C(c1ccccc1)n1cnnn1` (stereo not drawn) the value was -4.94%. Take `CC(O)CNC(=O)c1nc(Cc2c(Cl)cccc2Cl)no1` (stereo not drawn): the cytotoxicity at 70.5 h is -4.9%. With `c1cc(C2CCN(c3cnccn3)CC2)ncn1`, the cytotoxicity at 70.5 h is 1.96%. The value for `CN(C)c1nccc(C2CN(c3ccccc3)CCO2)n1` (stereo not drawn) was -4.49%. For `CN(C)CCn1nc(C2CCN(S(=O)(=O)N(C)C)C2)c2cccnc21` (stereo not drawn) the value was -3.16%; for `Cc1cc(C)n(CCNCc2cc(-c3ccc(F)cc3)c[nH]c2=O)n1`, 1.4%; for `Cn1cc(CN2CCc3nc4sccc4c(=O)n3CC2)cn1`, -3.58%. The value for `CCC(C)NC(=O)c1cc(S(=O)(=O)N(C)C)c(C)s1` (stereo not drawn) was -4.34%; that for `Cc1cc(Nc2cnccn2)cc(C2CCCN2)n1` (stereo not drawn) was 12.2%; that for `Nc1ncc(-c2ccc(Cl)cc2)c(C2CCCNC2)n1` (stereo not drawn) was 37.3%. Regarding `Cc1cc(N(C)C)nc(C2COCCN2Cc2csc(C)n2)n1` (stereo not drawn), the cytotoxicity at 70.5 h came out at 10.4%.

As to `Cc1cc(NC2CC3(CCN(Cc4cscn4)C3)C2)ncn1` (stereo not drawn), the cytotoxicity at 70.5 h is -6.43%. For `c1cnnc(N[C@@H]2CC[C@@H]3CN(Cc4ccc5cc[nH]c5c4)C[C@@H]32)c1` the value was -9.52%.

As to `COCC(=O)NC[C@]1(O)CN(Cc2ccc3c(c2)OCCO3)C[C@H]1O`, the cytotoxicity at 70.5 h was -12.9%.

`CS(=O)(=O)N[C@@H]1CN(Cc2ccc3ncccc3c2)C[C@H]1O`: the cytotoxicity at 70.5 h is -5.91%. For `CCn1cc(NC(=O)CN2CCC(Oc3ccccc3C)CC2)c(C)n1` the value was -2.26%. `Cc1cc(C)nc(Nc2nccnc2C2CCCN(C(CO)CO)C2)n1` (stereo not drawn): the cytotoxicity at 70.5 h was -6.39%. The value for `NC(=O)CN1CCC(c2noc3cc(F)ccc23)CC1` was 39.4%; that for `CC(C)(C)C(=O)N1CCCC1(C(=O)N1CCCC1)c1cnccn1` (stereo not drawn) was 18.9%; that for `CCc1nnc(Nc2cc(C)nc(C3CN(C(=O)C(C)C)CCO3)c2)s1` (stereo not drawn) was 9.87%. The value for `COc1cccc(F)c1CN1CCC(c2nc(C)cc(C)n2)C1` (stereo not drawn) was 14.3%; that for `Cn1ccnc1CNC(=O)CC1CCCCO1` (stereo not drawn) was -6.84%. The value for `COc1ccccc1OCCc1nnc(NC(=O)C2CC23CCC3)s1` (stereo not drawn) was -2.4%; that for `CC1CCCN(c2ncc(-c3ccccc3F)c(-c3nccn3C)n2)C1` (stereo not drawn) was -12.5%. Consider `CCCC(=O)Nc1cccc([C@H]2C[C@@H](NC(C)=O)CCO2)c1`, for which the cytotoxicity at 70.5 h is -12.2%. The value for `CC(=O)N[C@H]1CCO[C@@H](c2cccc(NC(=O)C(C)(C)C)c2)C1` was -7.68%. Consider `Cc1cc(N2CCOC(c3ccc(N(C)C)cn3)C2)nc(N)n1` (stereo not drawn), for which the cytotoxicity at 70.5 h is -6.31%. The value for `Cc1ccc(-c2ccccc2CC2(C(=O)NC(C)C)CCCNC2)cc1` (stereo not drawn) was -3.27%; that for `CC(=O)N1CC(C(=O)NC(C)c2cnn(C)c2C)C1` (stereo not drawn) was -4.41%.

On to `Cn1ccc(NC(=O)CN2CCN(C3CCCC3)C(=O)C2)n1`, for which the cytotoxicity at 70.5 h was -4.86%.

Take `CC(=O)N1CCC(c2ncc(C(=O)Nc3ccc(F)cc3)c(C)n2)CC1`: the cytotoxicity at 70.5 h stood at 12.6%. As to `COc1ccc(NC(=O)c2cnc(C3CCN(C)CC3)nc2C)cc1`, the cytotoxicity at 70.5 h is -2.26%. `CN1C[C@H](c2ccccc2)[C@H]2CN(C(=O)Cc3cccc(O)c3)CC[C@H]21`: the cytotoxicity at 70.5 h was -2.25%. For `Cc1ccc(C(=O)NCc2ccnc(C3CCCOC3)n2)s1` (stereo not drawn) the value was 10.5%; for `Cc1nccn1[C@@H]1CC[C@@H](N(C)S(=O)(=O)c2ccc(F)cc2)[C@H]1O`, -3.16%.

As to `CC(C)C(=O)NCCc1nc(-c2ccncc2)n[nH]1`, the cytotoxicity at 70.5 h is -2.41%. For `OCCN1CCCC(c2cccc(-c3ccccc3F)n2)C1` (stereo not drawn) the value was -5.22%; for `Cn1ccc(C(=O)N2CCCCC2c2cc(CCO)[nH]n2)n1` (stereo not drawn), -1.7%; for `CN1CCCC(c2nccnc2-c2cccc(C(F)(F)F)c2)C1` (stereo not drawn), -0.583%.

For `Cc1nc(C)n(CCC(=O)NCC2CCCOC2)n1` (stereo not drawn), the cytotoxicity at 70.5 h was -0.994%. For `CCc1ccccc1Nc1noc2c1CN(C(=O)c1ccn(C)n1)CC2` the value was 2.97%; for `COCCC(=O)NCc1ccc(-c2ncncc2C(=O)N(C)C)cc1`, 6.32%. For `CN(C)C(=O)c1cncnc1-c1ccc(CNC(=O)C2CCCO2)cc1` (stereo not drawn) the value was 10.6%; for `CC(C)C(NC(=O)C1CCCC1)c1cc(O)nc(-c2cccnc2)n1` (stereo not drawn), 11%; for `CCn1ncc(CN2CCC(c3ncc(Cl)cc3S(C)(=O)=O)CC2)c1C`, -8.43%. For `CN(C)Cc1cc(C2CCN(C(=O)C3CC34CCC4)CC2)nn1C` (stereo not drawn) the value was -0.0295%; for `Cc1csc(C(Cc2ccsc2)NC(=O)CN(C)Cc2cccnc2)n1` (stereo not drawn), -0.677%; for `Nc1ncnc2nc(C3CCCCN3)ccc12` (stereo not drawn), -6.59%. As to `COc1cccc(CN(Cc2ccco2)Cc2[nH]cnc2C)c1`, the cytotoxicity at 70.5 h came out at 6.19%.

As to `Cc1nc(CN2CCC(O)(c3ccccc3F)CC2)c2ccccn12`, the cytotoxicity at 70.5 h turned out to be 11.2%. For `c1ccc([C@@H]2CN(Cc3ccncc3)C[C@H]2c2cc[nH]n2)cc1` the value was -1.08%. The value for `Cc1ccc2c(CC(=O)N(C)CCN(C)C)c(C)[nH]c2c1C` was 2.2%; that for `Cc1nn(C(C)C)c(C)c1CN1CCN(C2CCCCC2)C(=O)C1` was -3.48%; that for `CN(C)C(=O)c1cn[nH]c1C1CCCN1Cc1nccn1C` (stereo not drawn) was 22.5%.
